Test results reported in US11028084B2, “Selective inhibitors of gentotoxic steress-induced IKK/NF-κB pathways” (Max-Delbrück-Centrum für Molekulare Medizin in der …, priority 2016, dated 2021).

How the values were obtained:
[1] = test system: genotoxic stress-activated NF-κB signaling; assay: TAK1 and p65 S536 phosphorylation after γ-irradiation, WB, HepG2 cells; type: cell-based, human
Experimental: FIG. 6: (A) U2OS cells were pre-treated with DMSO or MW01 and irradiated. Stimulation of cell with IL-1β served as a positive control for IκBα and p65 phosphorylation. Cells were lysed at indicated time points and used for WB analyses. (B,C) Similar experimental setup as in (A). (D) Experiment as in (A-C), but with other time points analysed and performed with HepG2 cells. PARP1 and LDH serve as loading controls.
FIG. 9: HepG2 cells were pre-incubated with DMSO, MW01 (5 μM) or the ATM inhibitor Ku55933 (10 μM) and irradiated. After 60 min cells were harvested and processed. Immunochemical staining of Western blotting membranes was done using indicated antibodies.
FIG. 14: (A) U2OS cells were pre-treated with different concentrations of olaparib prior to co-treatment with etoposide. Whole cell lysis was performed after 90 min and cleared lysates were used for WB with indicated antibodies. (B) U2OS cells were pre-treated with DMSO, olaparib or the ATM inhibitor Ku55933 and co-treated with etoposide. Cells were harvested after 45 min and subjected to SDS-PAGE/WB. Membranes were stained with the indicated antibodies. The experiment of (B) was performed simultaneously to the experiments of (A) and (E) to control functionality of olaparib in inhibiting PAR chain formation. (C) Densitometrical analyses of (A) and two further independent experiments done as shown in (A). (D) U2OS cells were pre-treated with the substances as indicated prior to irradiation. After 90 min mRNA was isolated, transcribed into cDNA and was used for expression analyses of the indicated genes using quantitative real-time PCR (qRT-PCR). (E) HepG2 cells were pre-treated with the PARP inhibitors olaparib, 3-AB and EB-47 prior to γ-irradiation. Cells were harvested after 15 and 90 min and subjected to SDS-PAGE/WB. Membranes were stained with the indicated antibodies. Error bars equal SEM.

[2] = target: T1, nuclear IKKγ-PIASy-PARP1-ATM signalosome (Mus musculus, UniProt O88522+P11103+Q62388+Q9JM05); assay: Nuclear PARP1-signalosome formation, IKKγ co-immunoprecipitation, MEF cells; type: cell-based; details: irradiation
T1 construct: endogenous in cells; host or cells: MEF (mouse embryonic fibroblasts)
Experimental: (§1) FIG. 8: (A) HepG2 cells were pre-treated with DMSO or MW01 and irradiated. Nuclear cell extracts (NE) were used for PIASy immunoprecipitation (IP). Western blot membranes were incubated with indicated antibodies. (B) Experiment as shown in (A), but with IKKγ IP. (C) Experiment as shown in (B), but done in HEK293 cells. (D) Experiment done as shown in […], but repeated in MEF cells.
(§2) Following cell lysis the protein concentration of samples was determined. For input controls, 40 μg lysate were mixed with 6×SDS-buffer and denatured by heating to 95° C. for 4 min. Approximately 1500 μg protein lysate was used for pulldown and samples volumes were equalled with lysis buffer. Lysates were precleared with 30 μl sepharose A or sepharose G beads (depending on the antibody type used for pulldown) for 30 min, and centrifuged for 5 min at 1,500×g. The supernatant was transferred to a new reaction tube. Primary antibody (2-2.5 μg) was added to the cleared lysate for immunoprecipitation overnight while rotating at 4° C. The next day 30 μl sepharose beads per sample were used for immobilisation of antibodies. Following 4 washes with IP wash buffer precipitated proteins were eluted by mixing with 3×SDS-buffer and heating to 95° C. for 4 min.

PARP1 = target: T2, PARP1 (Mus musculus, UniProt P11103); assay: PARP1 enzymatic activity, PAR chain formation after γ-irradiation, MEF cells; type: cell-based
T2 construct: endogenous in cells; host or cells: MEF (mouse embryonic fibroblasts)
Description: FIG. 10: (A) MEF cells were pre-treated with the indicated substances, irradiated and cell lysates were used for poly(ADP)-ribose probing using a specific antibody. (B) Experiment performed as described for (A), but using U2OS cells.

U2OS cells = assay: Caspase-3-dependent cleavage of PARP1, WB, U2OS cells; type: cell-based, human
Experimental: (§3) FIG. 16: (A) U2OS cells were pre-treated with DMSO or MW01 and irradiated. Cells were lysed 8 h post γ-IR and were used for western blotting and immunochemical staining. (B) HEK293 cells were pre-treated with DMSO or MW01 and irradiated. After 48 h cells were fixed and stained with crystal violet. Dissolved crystal violet was used for absorbance measurement in a visible light spectrophotometer at a wavelength of 595 nm. (C) HEK293 cells were pre-treated with DMSO or MW01 and irradiated. The percentage of viable cells within the population was calculated by exclusion of annexin V and propidium-iodide positive cells measured by flow cytometry. (D) MEF cells were pre-treated with DMSO or MW01 and irradiated. Cells were used for annexin V staining 24 h and 48 after γ-IR. Percentage of annexin V positive cell population was analysed using a flow cytometer. (E) Experiment done as shown in (D) but with HT1080 cells processed 8 h after irradiation. Statistical significance was calculated using students t-test.

HEK293 cells = assay: Crystal violet staining (cell number), HEK293 cells; type: cell-based, human
Experimental: as §3
For crystal violet staining, cells were washed with ice-cold PBS and fixed with 4% PFA in PBS for 15 min under a fume hood. After washing with PBS, cells were stained with 0.1% crystal violet for 20 min at RT. […] Then, 0.25 ml of stain was diluted 1:4 in ddH2O and absorbance was measured at 595 nm using a spectrophotometer against 10% acetic acid as blank.

HT1080 cells = assay: Annexin V staining, flow cytometry, HT1080 cells; type: cell-based; details: HT1080, 10 Gy
Experimental: as §3
Cells were washed with ice-cold PBS and detached from growing dishes using Trypsin/EDTA solution. Detached cells were centrifuged at 300×g for 5 min. […]
In addition, the sensitising effect of NF-κB inhibition was tested in HT1080 cells. After pre-treatment with DMSO or MW01, cells were irradiated with a dose of 10 Gy and analysed by annexin V staining.

[3] = target: nuclear IKKγ-PIASy-PARP1-ATM signalosome (Homo sapiens, UniProt P09874+Q13315+Q8N2W9+Q9Y6K9); assay: Nuclear PARP1-signalosome formation, IKKγ co-immunoprecipitation, HEK293 cells; type: cell-based; parameters: endogenous in cells; host or cells: HEK293
Experimental: as §1, §2

Chain of nuclear IKKγ-PIASy-PARP1-ATM signalosome (Homo sapiens, UniProt P09874+Q13315+Q8N2W9+Q9Y6K9) (Q9Y6K9 whole entry): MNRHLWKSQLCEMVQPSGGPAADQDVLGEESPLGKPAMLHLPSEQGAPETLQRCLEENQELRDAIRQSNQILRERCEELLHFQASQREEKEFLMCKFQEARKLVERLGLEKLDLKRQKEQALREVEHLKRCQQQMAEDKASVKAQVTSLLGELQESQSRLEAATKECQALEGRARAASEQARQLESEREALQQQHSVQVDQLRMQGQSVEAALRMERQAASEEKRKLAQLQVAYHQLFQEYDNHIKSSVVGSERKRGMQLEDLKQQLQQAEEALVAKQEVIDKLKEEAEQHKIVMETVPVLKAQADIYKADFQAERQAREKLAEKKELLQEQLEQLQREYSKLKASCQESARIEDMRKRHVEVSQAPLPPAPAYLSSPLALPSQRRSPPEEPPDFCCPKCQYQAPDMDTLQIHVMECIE
Chain of nuclear IKKγ-PIASy-PARP1-ATM signalosome (Homo sapiens, UniProt P09874+Q13315+Q8N2W9+Q9Y6K9) (Q8N2W9 2-510 limits assumed): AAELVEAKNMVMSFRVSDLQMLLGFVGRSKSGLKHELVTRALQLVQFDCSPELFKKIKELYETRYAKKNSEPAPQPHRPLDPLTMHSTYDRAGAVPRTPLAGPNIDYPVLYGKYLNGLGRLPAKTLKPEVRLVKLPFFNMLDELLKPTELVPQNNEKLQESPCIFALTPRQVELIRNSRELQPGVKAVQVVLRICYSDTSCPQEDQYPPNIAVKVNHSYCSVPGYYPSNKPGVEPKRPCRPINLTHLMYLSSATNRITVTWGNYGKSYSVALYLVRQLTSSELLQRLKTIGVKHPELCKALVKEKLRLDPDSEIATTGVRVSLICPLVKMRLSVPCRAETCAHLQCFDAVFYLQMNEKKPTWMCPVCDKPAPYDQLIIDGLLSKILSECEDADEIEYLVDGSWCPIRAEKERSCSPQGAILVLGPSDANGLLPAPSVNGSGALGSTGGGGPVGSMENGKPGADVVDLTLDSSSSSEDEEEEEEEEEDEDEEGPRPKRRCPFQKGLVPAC
Chain of nuclear IKKγ-PIASy-PARP1-ATM signalosome (Homo sapiens, UniProt P09874+Q13315+Q8N2W9+Q9Y6K9) (P09874 2-1014 limits assumed): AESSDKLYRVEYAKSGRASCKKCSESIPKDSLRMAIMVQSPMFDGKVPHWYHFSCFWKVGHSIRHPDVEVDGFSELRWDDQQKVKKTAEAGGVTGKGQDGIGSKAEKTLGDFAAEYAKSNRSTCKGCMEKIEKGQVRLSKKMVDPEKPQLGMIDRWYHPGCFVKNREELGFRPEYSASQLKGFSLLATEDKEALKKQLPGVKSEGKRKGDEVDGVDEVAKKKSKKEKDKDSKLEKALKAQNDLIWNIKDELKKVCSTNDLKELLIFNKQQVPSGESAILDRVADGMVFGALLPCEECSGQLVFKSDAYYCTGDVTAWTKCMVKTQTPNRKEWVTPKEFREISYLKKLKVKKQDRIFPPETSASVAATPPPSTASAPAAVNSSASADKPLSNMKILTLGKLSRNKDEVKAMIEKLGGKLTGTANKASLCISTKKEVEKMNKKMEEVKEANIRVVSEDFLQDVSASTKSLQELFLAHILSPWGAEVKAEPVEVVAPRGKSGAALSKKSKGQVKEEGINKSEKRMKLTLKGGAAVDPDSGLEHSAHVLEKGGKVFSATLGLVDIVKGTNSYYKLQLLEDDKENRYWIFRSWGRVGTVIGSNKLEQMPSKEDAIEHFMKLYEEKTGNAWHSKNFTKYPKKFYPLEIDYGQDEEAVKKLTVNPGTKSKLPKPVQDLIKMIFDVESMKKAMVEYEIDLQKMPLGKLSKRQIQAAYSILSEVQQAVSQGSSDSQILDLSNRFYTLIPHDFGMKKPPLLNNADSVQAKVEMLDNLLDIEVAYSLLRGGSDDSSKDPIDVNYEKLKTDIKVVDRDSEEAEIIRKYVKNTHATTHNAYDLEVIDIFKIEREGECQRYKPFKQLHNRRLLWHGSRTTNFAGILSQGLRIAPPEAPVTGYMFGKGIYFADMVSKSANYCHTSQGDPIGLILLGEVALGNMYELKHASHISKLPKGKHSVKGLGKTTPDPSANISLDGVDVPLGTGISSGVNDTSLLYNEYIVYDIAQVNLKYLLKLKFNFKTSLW
Chain of nuclear IKKγ-PIASy-PARP1-ATM signalosome (Homo sapiens, UniProt P09874+Q13315+Q8N2W9+Q9Y6K9) (Q13315 2-3056 limits assumed): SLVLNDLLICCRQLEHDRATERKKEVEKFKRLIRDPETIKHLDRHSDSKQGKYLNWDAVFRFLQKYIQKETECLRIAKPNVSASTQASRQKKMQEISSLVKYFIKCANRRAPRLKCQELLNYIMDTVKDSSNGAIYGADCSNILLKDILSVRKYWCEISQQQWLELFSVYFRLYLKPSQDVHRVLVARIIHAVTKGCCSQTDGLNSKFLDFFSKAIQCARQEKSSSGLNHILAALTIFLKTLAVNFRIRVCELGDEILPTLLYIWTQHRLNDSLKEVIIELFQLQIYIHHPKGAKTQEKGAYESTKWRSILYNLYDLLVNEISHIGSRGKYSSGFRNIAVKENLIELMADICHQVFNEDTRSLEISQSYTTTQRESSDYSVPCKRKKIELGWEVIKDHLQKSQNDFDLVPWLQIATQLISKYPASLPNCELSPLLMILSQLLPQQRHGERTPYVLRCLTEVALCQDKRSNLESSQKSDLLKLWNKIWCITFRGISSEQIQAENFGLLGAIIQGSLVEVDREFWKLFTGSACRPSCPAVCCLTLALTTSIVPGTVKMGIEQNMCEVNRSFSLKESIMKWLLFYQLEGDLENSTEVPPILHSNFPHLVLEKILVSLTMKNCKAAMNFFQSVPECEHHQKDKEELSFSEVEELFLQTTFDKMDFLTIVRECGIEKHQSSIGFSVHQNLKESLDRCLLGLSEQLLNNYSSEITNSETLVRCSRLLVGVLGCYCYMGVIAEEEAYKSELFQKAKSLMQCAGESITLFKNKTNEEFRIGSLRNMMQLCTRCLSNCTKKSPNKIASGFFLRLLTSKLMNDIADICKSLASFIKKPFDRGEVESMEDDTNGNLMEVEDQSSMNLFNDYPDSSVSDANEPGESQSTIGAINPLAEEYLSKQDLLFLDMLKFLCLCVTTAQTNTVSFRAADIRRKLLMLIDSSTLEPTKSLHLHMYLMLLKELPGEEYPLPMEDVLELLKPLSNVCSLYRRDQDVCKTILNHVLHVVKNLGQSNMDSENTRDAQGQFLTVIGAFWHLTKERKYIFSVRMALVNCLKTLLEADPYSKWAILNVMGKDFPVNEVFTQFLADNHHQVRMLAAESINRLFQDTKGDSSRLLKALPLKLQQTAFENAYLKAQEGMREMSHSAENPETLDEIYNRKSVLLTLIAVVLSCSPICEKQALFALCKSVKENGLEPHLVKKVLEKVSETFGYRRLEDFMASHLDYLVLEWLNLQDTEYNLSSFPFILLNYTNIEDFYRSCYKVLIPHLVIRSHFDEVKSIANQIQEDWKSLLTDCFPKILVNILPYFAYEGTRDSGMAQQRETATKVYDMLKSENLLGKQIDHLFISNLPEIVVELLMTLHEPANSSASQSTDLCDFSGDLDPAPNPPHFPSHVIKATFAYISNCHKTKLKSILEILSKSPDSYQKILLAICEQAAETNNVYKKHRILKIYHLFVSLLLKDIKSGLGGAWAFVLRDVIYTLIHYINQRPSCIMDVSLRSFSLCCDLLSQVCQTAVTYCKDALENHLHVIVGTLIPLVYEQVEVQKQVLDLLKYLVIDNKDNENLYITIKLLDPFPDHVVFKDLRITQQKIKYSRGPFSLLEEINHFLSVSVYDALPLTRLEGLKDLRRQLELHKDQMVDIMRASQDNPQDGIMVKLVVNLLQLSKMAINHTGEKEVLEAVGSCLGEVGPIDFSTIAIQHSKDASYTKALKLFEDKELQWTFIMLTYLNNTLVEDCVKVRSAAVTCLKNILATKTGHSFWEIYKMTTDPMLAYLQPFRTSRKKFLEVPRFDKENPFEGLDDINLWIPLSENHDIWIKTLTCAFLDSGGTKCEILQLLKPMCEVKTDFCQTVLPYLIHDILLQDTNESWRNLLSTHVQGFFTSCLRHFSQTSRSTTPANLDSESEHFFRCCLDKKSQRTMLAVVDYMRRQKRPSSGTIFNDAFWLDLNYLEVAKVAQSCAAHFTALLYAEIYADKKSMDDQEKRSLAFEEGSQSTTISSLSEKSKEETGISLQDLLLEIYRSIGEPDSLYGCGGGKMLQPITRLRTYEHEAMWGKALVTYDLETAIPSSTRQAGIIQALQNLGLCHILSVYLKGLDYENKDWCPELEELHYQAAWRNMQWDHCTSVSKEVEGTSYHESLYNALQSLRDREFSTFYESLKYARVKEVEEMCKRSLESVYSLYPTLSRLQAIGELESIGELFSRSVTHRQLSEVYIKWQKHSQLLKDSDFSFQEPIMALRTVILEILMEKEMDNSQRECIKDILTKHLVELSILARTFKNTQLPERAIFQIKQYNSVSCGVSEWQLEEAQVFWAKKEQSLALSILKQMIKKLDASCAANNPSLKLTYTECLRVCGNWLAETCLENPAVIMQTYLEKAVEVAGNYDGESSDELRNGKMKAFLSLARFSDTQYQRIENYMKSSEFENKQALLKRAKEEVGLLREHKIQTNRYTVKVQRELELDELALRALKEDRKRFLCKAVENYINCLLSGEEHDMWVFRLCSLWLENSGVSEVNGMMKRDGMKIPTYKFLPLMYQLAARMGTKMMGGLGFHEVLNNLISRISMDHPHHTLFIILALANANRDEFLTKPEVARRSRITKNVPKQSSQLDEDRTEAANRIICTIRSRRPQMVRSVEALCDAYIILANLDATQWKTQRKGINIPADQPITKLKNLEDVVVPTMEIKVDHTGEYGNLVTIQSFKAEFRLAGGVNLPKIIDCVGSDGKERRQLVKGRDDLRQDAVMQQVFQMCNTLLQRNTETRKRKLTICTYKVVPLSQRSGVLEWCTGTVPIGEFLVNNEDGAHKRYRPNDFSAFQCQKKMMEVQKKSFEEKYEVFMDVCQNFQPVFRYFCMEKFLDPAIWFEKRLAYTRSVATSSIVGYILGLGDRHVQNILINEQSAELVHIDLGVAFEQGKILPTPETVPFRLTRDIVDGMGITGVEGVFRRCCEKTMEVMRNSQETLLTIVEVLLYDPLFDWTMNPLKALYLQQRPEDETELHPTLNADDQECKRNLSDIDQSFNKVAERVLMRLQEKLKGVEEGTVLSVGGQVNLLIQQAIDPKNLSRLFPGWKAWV

COc1ccc2c(c1OC)c(=O)n1c3ccc(O)cc3c3ccnc2c31 [MW01, 12-hydroxy-6,7-dimethoxy-8H-benzo[c]indolo[3,2,1-ij][1,5]naphthyridin-8-one]
p65 S536 phosphorylation level ([1]; HepG2, 5 μM, irradiated, 60 min): drastically reduced
TAK1 and p65 phosphorylation ([1]; HepG2, γ-IR): abolished
interaction of IKKγ with PARP1, p-ATM S1981 or PIASy [2]: abrogation of the interaction
PAR chain formation / PARP1 enzymatic activity (PARP1): did not interfere with activation of PARP1 enzymatic activity
PARP1 cleavage (U2OS cells; 8 h post γ-IR): strongly increased
PARP1 cleavage (U2OS cells; resting cells): slight increase
cell number compared to the DMSO/IR control (HEK293 cells; HEK293, 48 h after irradiation): significant effect on further reduction in cell number
cell number in comparison to DMSO treated samples (HEK293 cells; HEK293, not irradiated): reduced the cell number
population of early apoptotic cells (HT1080 cells): roughly doubled
annexin V staining compared to the irradiated control (HT1080 cells; 8 h after irradiation): significant increase
Co-IP of PARP-1 with IKKγ ([3]; HEK293, data not shown): abrogated Co-IP of PARP-1 with IKKγ
IKKγ-PIASy-interaction (PIASy co-immunoprecipitation with IKKγ) ([3]; HEK293, γ-irradiation): the interaction was abolished
